Assay: Primary salt screen of the compound of Formula II: XRPD post-cycling and post-stability (40° C., 75% RH overnight)
Format: physicochemical
Settings: compound of Formula II + the acid given as label; for XRPD post-cycling: cycled RT/40° C. over 24 hours; for XRPD post-stability: 40° C. and 75% RH overnight
Description: The salt screen was performed as follows. […] In cases where stock solutions could not be attained, the acid was added neat to the solution of the compound of Formula II.
The samples were then temperature cycled between ambient (RT) and 40° C. in 4-hour cycles over 24 hours. Each mixture was filtered and isolated solids were analyzed (wet) by XRPD to determine crystallinity and form. Samples in which solid was not observed were stored uncapped to allow solvent evaporation. The remaining samples were placed in an oven at 40° C. and 75% RH overnight. The samples were then reanalyzed by XRPD to determine any changes in form or crystallinity. The observations and results, including the different diffractogram patterns observed during the screen, are shown in Tables 29-53, below, and FIGS. 24A-24B through 47A-47B.

SMILES | XRPD post-cycling (Acetone/water (10%)) | XRPD post-cycling (Dioxane/water (10%)) | XRPD post-cycling (EtOH/water (10%)) | XRPD post-cycling (IPA/water (10%)) | XRPD post-cycling (MeCN/water (20%)) | XRPD post-cycling (THF/water (1%)) | XRPD post-stability (from Acetone/water (10%)) | XRPD post-stability (from Dioxane/water (10%)) | XRPD post-stability (from EtOH/water (10%)) | XRPD post-stability (from IPA/water (10%)) | XRPD post-stability (from MeCN/water (20%)) | XRPD post-stability (from THF/water (1%))
O=S(=O)(O)CCS(=O)(=O)O [1,2-Ethane disulfonic acid] | No solid | No solid | No solid | No solid | No solid | No solid | No solid | No solid | No solid | No solid | No solid | No solid
O=S(=O)(O)CCO [2-Hydroxy ethanesulfonic acid] | – | Form 7 | Form 7 | – | – | – | – | Form 7 | Form 7 | – | – | –
O=S(=O)(O)c1ccccc1 [Benzene sulfonic acid] | – | No solid | Form 2 | Form 2 | No solid | No solid | – | No solid | Form 2 | Form 2 | No solid | No solid
CCS(=O)(=O)O [Ethane sulfonic acid] | No solid | No solid | No solid | Amorphous | No solid | No solid | No solid | No solid | No solid | Amorphous | No solid | No solid
Cl [Hydrochloric acid] | Form 2 | Form 2 | Form 2 | Form 2 | Form 2 | Form 2 | Form 2 | Form 2 | Form 2 | Form 2 | Form 2 | Form 2
N[C@@H](CC(=O)O)C(=O)O [L-Aspartic acid] | – | – | – | Form 8 | – | Form 8 | Form 14 | – | – | Form 8 | Form 8 | Form 8
O=C(O)/C=C\C(=O)O [Maleic acid] | Amorphous | No solid | Amorphous | Amorphous | No solid | – | Amorphous | No solid | Amorphous | Amorphous | No solid | Form 15
CS(=O)(=O)O [Methane sulfonic acid] | Amorphous | No solid | Amorphous | Form 2 | No solid | No solid | Amorphous | No solid | Amorphous | Form 2 | No solid | No solid
O=S(=O)(O)c1ccc2ccccc2c1 [Naphthalene-2-sulfonic acid] | – | – | Form 2 | – | – | Form 5 | – | – | Form 2 | – | – | –
O=C(O)C(=O)O [Oxalic acid] | Amorphous | Form 6 | Amorphous | Amorphous | No solid | No solid | – | Form 6 | Form 6 | Form 6 | No solid | No solid

From US10584124B2, “Crystalline forms” (Array BioPharma Inc., priority 2017, dated 2020)
